Measured values published in PubChem BioAssay (NCI).
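Results reflect a 48-hour exposure of cells in 96-well plates to compound at five concentrations. At the GI50, growth is halved. TGI: concentration producing complete growth inhibition.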

Columns and labels:
Assay in all cases: DTP human tumour cell line panel, 48 h; in the data active means GI50 below about 0.43 µM; inactive means the rest
[1] = test system: CCRF-CEM leukemia
[2] = test system: SNB-19 CNS
[3] = test system: SF-295 CNS
[4] = test system: HCC-2998 colon
[5] = test system: OVCAR-3 ovarian
[6] = test system: MDA-MB-231 breast
[7] = test system: IGROV1 ovarian
[8] = test system: SR leukemia
[9] = test system: SK-MEL-28 melanoma
[10] = test system: BT-549 breast
[11] = test system: MDA-MB-435
[12] = test system: A498 renal
[13] = test system: OVCAR-4 ovarian
[14] = test system: RPMI-8226 leukemia
[15] = test system: HCT-15 colon
[16] = test system: MCF7 breast
[17] = test system: TK-10 renal
[18] = test system: UACC-62 melanoma
[19] = test system: HS 578T breast
[20] = test system: MOLT-4 leukemia
[21] = test system: UACC-257 melanoma
[22] = test system: UO-31 renal
[23] = test system: LOX IMVI melanoma
[24] = test system: NCI-H522 lung
[25] = test system: SN12C renal
[26] = test system: NCI-H226 lung
[27] = test system: HL-60(TB) leukemia
[28] = test system: SW-620 colon
[29] = test system: ACHN renal
[30] = test system: HT29 colon
[31] = test system: RXF 393 renal
[32] = test system: PC-3 prostate
[33] = test system: MALME-3M melanoma
[34] = test system: SK-OV-3 ovarian
[35] = test system: M14 melanoma
[36] = test system: SNB-75 CNS
[37] = test system: HCT-116 colon
[38] = test system: U251 CNS
[39] = test system: CAKI-1 renal
[40] = test system: SF-268 CNS
[41] = test system: KM12 colon
[42] = test system: OVCAR-8 ovarian
[43] = test system: K-562 leukemia
[44] = test system: NCI-H460 lung
[45] = test system: 786-0 renal
[46] = test system: NCI/ADR-RES ovarian
[47] = test system: SK-MEL-2 melanoma
[48] = test system: A549 NSCLC
[49] = test system: SF-539 CNS
[50] = test system: DU-145 prostate
[51] = test system: COLO 205 colon
[52] = test system: SK-MEL-5 melanoma
[53] = test system: HOP-62 NSCLC
[54] = test system: OVCAR-5 ovarian
[55] = test system: NCI-H23 lung
[56] = test system: T-47D breast
[57] = test system: HOP-92 NSCLC

COc1ccccc1C(=O)c1cnc(NC2CCN(S(C)(=O)=O)CC2)nc1N
> 23.1 µM: TGI [26]
> 15.4 µM: TGI [51]
10.5 µM: TGI [31]
> 22.9 µM: TGI [57]
> 24.1 µM: TGI [1]
15.2 µM: TGI [49]
14.3 µM: TGI [27]
inactive: GI50 [1] 7.04 µM | GI50 [2] 4.71 µM | GI50 [3] 5.5 µM | GI50 [4] 13 µM | GI50 [5] 9.15 µM | GI50 [6] 7.27 µM | GI50 [7] 8.05 µM | GI50 [8] 2 µM | GI50 [9] 6.38 µM | GI50 [10] > 13.3 µM | GI50 [11] 4.83 µM | GI50 [12] 6 µM | GI50 [13] 12.4 µM | GI50 [14] 6.57 µM | GI50 [15] 6.28 µM | GI50 [16] 1.19 µM | GI50 [17] 5.92 µM | GI50 [18] 6.68 µM | GI50 [19] 11.4 µM | GI50 [20] 6.43 µM | GI50 [21] 11.6 µM | GI50 [22] 7.43 µM | GI50 [23] 6.25 µM | GI50 [24] > 25 µM | GI50 [25] 5.48 µM | GI50 [26] 4.62 µM | GI50 [27] 3.96 µM | GI50 [28] 4.33 µM | GI50 [29] 4.68 µM | GI50 [30] 6.27 µM | GI50 [31] 4.4 µM | GI50 [32] 3.48 µM | GI50 [33] > 16.4 µM | GI50 [34] > 25 µM | GI50 [35] 10.2 µM | GI50 [36] 7.57 µM | GI50 [37] 4.52 µM | GI50 [38] 4.06 µM | GI50 [39] 5.84 µM | GI50 [40] 7.35 µM | GI50 [41] 5.74 µM | GI50 [42] 6.97 µM | GI50 [43] > 25 µM | GI50 [44] 2.85 µM | GI50 [45] 8.15 µM | GI50 [46] > 25 µM | GI50 [47] 9.93 µM | GI50 [48] 4.68 µM | GI50 [49] 4.97 µM | GI50 [50] 6.51 µM | GI50 [51] 4.37 µM | GI50 [52] 4.84 µM | GI50 [53] 7.73 µM | GI50 [54] 4.92 µM | GI50 [55] 5.71 µM | GI50 [56] 8.8 µM | GI50 [57] 6.14 µM
22 µM: TGI [12]
> 19.5 µM: TGI [8]
> 25 µM: TGI [2] | TGI [3] | TGI [4] | TGI [5] | TGI [6] | TGI [7] | TGI [9] | TGI [10] | TGI [11] | TGI [13] | TGI [14] | TGI [15] | TGI [16] | TGI [17] | TGI [18] | TGI [19] | TGI [20] | TGI [21] | TGI [22] | TGI [23] | TGI [24] | TGI [25] | TGI [28] | TGI [29] | TGI [30] | TGI [32] | TGI [33] | TGI [34] | TGI [35] | TGI [36] | TGI [37] | TGI [38] | TGI [39] | TGI [40] | TGI [41] | TGI [42] | TGI [43] | TGI [44] | TGI [45] | TGI [46] | TGI [47] | TGI [48] | TGI [50] | TGI [52] | TGI [53] | TGI [54] | TGI [55] | TGI [56]
